Source: article PMC7139549, “TLD1433 Photosensitizer Inhibits Conjunctival Melanoma Cells in Zebrafish Ectopic and Orthotopic Tumour Models” (Cancers, 2020)

Test system: CRMM1 cells
Assay: Annexin-V-FITC / Propidium Iodide FACS, CRMM1
Assay type: cell-based, Human
Description: Depending on the nature and intracellular localization of a PS, the light dose, and the cell type, PDT is known to provoke either necrosis, apoptosis, or autophagy. In order to investigate the death mechanism induced by green light-activated TLD1433 in CRMM1 and CRMM2 cells, the cells were stained with Annexin V and propidium iodide, and further analysed by fluorescence-activated cell sorting (FACS).
Figure 3 Green light irradiation of TLD1433 induces apoptosis and necrosis in CRMM1 and CRMM2 cells. (A) CRMM1 and (C) CRMM2 were stained with Annexin-V-FITC and Propidium Iodide. The percentages of live, early apoptotic, later apoptotic and necrotic cells in CRMM1 (B) and CRMM2 (D) were counted by FACS. Results are presented as means ± SD from three independent experiments. […]

Compound: Cc1ccnc(-c2cc(C)ccn2)c1.Cc1ccnc(-c2cc(C)ccn2)c1.[Cl-].[Cl-].[Ru+2].c1csc(-c2ccc(-c3ccc(-c4nc5c6cccnc6c6ncccc6c5[nH]4)s3)s2)c1 [TLD1433]
- cell fate by FACS (in words) (CRMM1, dark TLD1433 group): most cells were found alive
- cell fate by FACS (in words) (CRMM1, light-activated TLD1433 group): about half of the cells were found dead
